The results in this text go back to US9878054B2, “Polypeptide and lipophilic moiety conjugate compositions, formulations, and uses related thereto” (Tufts Medical Center, Inc., priority 2012, dated 2018).

The target in one data set is T1, PAR4 (Homo sapiens, UniProt Q96RI0).
T1 construct: Platelets were isolated from platelet rich plasma (PRP) using Sepharose 2B columns; endogenous in cells; host or cells: human platelets from healthy donors, gel-filtered
T1 sequence (Q96RI0 18-385): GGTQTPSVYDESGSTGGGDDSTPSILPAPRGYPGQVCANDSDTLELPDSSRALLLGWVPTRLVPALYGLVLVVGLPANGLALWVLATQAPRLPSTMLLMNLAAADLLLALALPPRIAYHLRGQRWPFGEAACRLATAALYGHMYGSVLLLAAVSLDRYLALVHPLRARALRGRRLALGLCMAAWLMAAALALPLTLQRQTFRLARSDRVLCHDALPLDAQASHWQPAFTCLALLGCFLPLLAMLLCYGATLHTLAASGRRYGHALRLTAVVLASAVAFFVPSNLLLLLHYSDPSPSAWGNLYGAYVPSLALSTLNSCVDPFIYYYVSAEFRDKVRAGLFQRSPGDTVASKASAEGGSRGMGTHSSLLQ
Nature of the data set: Human platelet aggregation, PAR4 agonist AYPGKF. Format: cell-based. Conditions: human platelets; 200 μM AYPGKF. As for the experimental part: (§1) A, Depiction of the mechanism of action of the cell-penetrating PZ-128 pepducin compound targeting the third intracellular loop (red) of PAR1. B, The NMR structure of PZ-128 was determined by simulated annealing methods using 210 distance restraints and included restraints to the proximal 3 hydrocarbons of the lipid. […] D, PZ-128 inhibits PAR1-dependent platelet aggregation. Gel filtered human platelets were treated with various concentrations of PZ-128 and then challenged with the PAR1 agonist SFLLRN (2.5 μM), 20 μM ADP, 200 μM AYPGKF or 1 mg/ml Ristocetin. E, Human platelets were treated with 3 μM PZ-128, 3 μM RWJ-56110, or 5% dextrose vehicle before the addition of various concentrations of thrombin (n=3-5).
(§2) PZ-128 also markedly right-shifted thrombin-induced aggregation by 5-fold. By comparison, the small molecule RWJ-56110 which antagonizes PAR1 at the extracellular ligand-binding site gave a 2-fold right shift in the thrombin activation curve of human platelets.
(§3) Whole blood from healthy donors was collected into a 30 ml syringe containing sodium citrate (0.4% vol/vol final). Platelets were isolated from platelet rich plasma (PRP) using Sepharose 2B columns in modified PIPES buffer.

For data set [1], the system named is guinea pig carotid artery thrombosis. The data set can be described thus: Guinea pig carotid artery FeCl3 injury arterial thrombosis model. The data set is classed as in vivo. As for the experimental part: A carotid artery FeCl3 injury model was used in guinea pigs to assess the anti-thrombotic efficacy of PZ-128 micelles within 15 min of initiation of drug administration. FeCl3 denudes the artery and exposes type I collagen and other subendothelial matrix proteins to initiate platelet-dependent thrombosis. Guinea pigs received 10 min intravenous infusions of PZ-128 micelles, 5 min prior to carotid artery injury. […] Mean occlusion times increased by 4-fold to 40 min at doses above 0.05 mg/kg PZ-128.
Male Hartley guinea pigs (150˜220 g) were purchased from Charles River Laboratories. A 0.61 mm-diameter catheter was inserted into the left jugular vein of anesthetized animals for administration of infusions of 5% USP dextrose vehicle or PZ-128 micelles. A 0.5 V-Doppler probe (Transonic Systems, Ithaca, N.Y.) was placed around the right carotid artery to record blood flow. A range of doses of PZ-128 micelles from 0.05 to 1.6 mg/kg in 0.9 ml volumes were delivered at an injection rate of 0.09 ml/min by a Harvard syringe pump. Five minutes after the infusion ended, arterial thrombosis was induced by placing a 5×5 mm^2 piece of filter paper soaked in freshly made 20% FeCl3 solution on the right carotid artery 5 mm distal to the probe for 20 minutes. […] To examine possible synergistic effects of PZ-128 micelles and P2Y12-ADP receptor inhibition, 1 mg/kg clopidogrel was administered by oral gavage 4 hours prior to FeCl3 injury. In these synergy experiments, the maximum endpoint was set at 90 minutes for occlusion time.

In data set [2] the test system is human platelets (thrombin). The data set can be described thus: Thrombin-induced aggregation of human platelets. The data set is classed as cell-based. Conditions: 3 μM compound. Here is the method: as §1, §2, §3
Data set [3] deals with guinea pig platelets (thromboxane mimetic U46119). The data set can be described thus: Guinea pig ex vivo platelet aggregation to thromboxane mimetic U46119 after iv infusion. The data set is classed as in vivo. Conditions: 3 or 6 mg/kg iv, 20 μM U46119.
Protocol: PZ-128 or 5% dextrose USP vehicle was infused for 10 min into the jugular vein of male and female guinea pigs (0.55-0.65 kg). A-C, At the 15 min time point, whole blood was collected by cardiac puncture in 100 μg/ml PPACK/4% Na-citrate (final) anti-coagulant and platelet rich plasma (PRP) prepared and aggregation measurements were performed. […] B-C, PRP obtained at the 15 min time point after infusion with vehicle, 3 mg/kg PZ-128 or 6 mg/kg PZ128 was challenged with 2.5 μM SFLLRN, 20 μM ADP or 20 μM thromboxane mimetic, U46119. Individual data points (n=3) are overlayed on bar graphs depicting mean±SD. […] Data in B-D were analyzed by the non-parametric Kruskal-Wallis test with the Dunn's multiple pairwise comparison post-test.
PZ-128 micelles were delivered by internal jugular vein infusions over 10 min.
Guinea pigs weighing 600-650 g were used for platelet aggregation experiments. PZ-128 micelles (3 or 6 mg/kg) were administered by a 10 min intravenous infusion, and blood was collected by cardiac puncture into sodium citrate (0.4% vol/vol final) 5 minutes after cessation of the infusion. PRP was prepared and PPACK added to a final concentration of 100 μg/ml. PRP was calcified with 2.5 mM CaCl2 and aggregation was performed as described above.
Data set [4] deals with human platelets (Ristocetin). The data set can be described thus: Human platelet aggregation, ristocetin. Conditions: 1 mg/ml Ristocetin. Format: cell-based. Here is the method:
as §1, §2, §3

Another data set relates to P2Y12 and P2Y1. The data set can be described thus: Baboon ex vivo platelet aggregation, ADP. Format: in vivo. Conditions: any dose, any time point. As for the experimental part: A-C, Male baboons (10-12 kg) were administered 1, 3 or 6 mg/kg PZ-128, or 5% dextrose USP vehicle by iv infusion and blood collected into 100 μg/ml PPACK anticoagulant at 0, 1, 2, 6, or 24 h time points. Light transmission platelet aggregometry was performed with platelet rich plasma with the indicated agonists (SFLLRN for PAR1, AYPGKF for PAR4 and ADP for P2Y12 and P2Y1). Data are reported as mean±SD (n=3-7) relative to time 0 controls (0%) and were analyzed by repeated measures one-way ANOVA with Bonferroni post-test correction; *P<0.05, **P<0.01 relative to time 0. Global P values were >0.05 for 1 mg/kg, 0.004 for 3 mg/kg, <0.0001 for 6 mg/kg. D, Pharmacokinetics of 3 and 6 mg/kg 45-min iv infusions of PZ-128 in male baboons. Plasma PZ-128 levels were measured by LC/MS/MS at 9 sequential time points: baseline, 15 min, 30 min, 1 h, 2 h, 4 h, 8 h, 24 h and 48 h after the start of infusion. Open symbols indicated plasma concentrations that were under the measurement threshold (5 ng/ml).
The anti-platelet effects of PZ-128 micelles were next examined in baboons at various time points after receiving different doses of intravenous infusions. […]
Non-terminal thrombosis and platelet aggregation studies were performed on 12 healthy male baboons (Papio anubis) weighing 9-12 kg at the Oregon National Primate Research Center (ONPRC). […] Platelet counts and hematocrit were measured immediately. […]

A short description of data set [5]: Bleeding time, platelet counts and hematocrit in baboons. The data set is classed as in vivo. Conditions: baboon; all doses tested (1-6 mg/kg). Here is the method: Whether PZ-128 had any adverse effects on hemostasis or coagulation indices in baboons and monkeys was evaluated. At all doses tested (1-6 mg/kg), PZ-128 micelles had no effect on bleeding time, platelet counts or hematocrit in baboons (Table 2).
Non-terminal thrombosis and platelet aggregation studies were performed on 12 healthy male baboons (Papio anubis) weighing 9-12 kg at the Oregon National Primate Research Center (ONPRC). […] Whole blood (10 ml) was collected into PPACK at a final concentration of 100 μg/ml just prior to infusion (baseline) and 15 min to 24 h after the PZ-128 micelle infusion was terminated. Platelet counts and hematocrit were measured immediately. PRP was prepared from whole blood and platelet aggregation performed as described above. Bleeding time (BT) measurements were performed on the shaved volar surface of the forearm using the standard template method.

SMILES strings stand for the structures. Where a SMILES comes first, the peptide text is derived from it. The star is where a group is joined. Palmitoyl = CCCCCCCCCCCCCCCC(=O)*

On to `CCCCCCCCCCCCCCCC(=O)N[C@@H](CCCCN)C(=O)N[C@@H](CCCCN)C(=O)N[C@@H](CO)C(=O)N[C@@H](CCCNC(=N)N)C(=O)N[C@@H](C)C(=O)N[C@@H](CC(C)C)C(=O)N[C@@H](Cc1ccccc1)C(N)=O` [PZ-128, palmitate-KKSRALF-NH2] (Palmitoyl-KKSRALF-NH2), for which, at PAR4, the “Inhibitory activity against PAR4 (AYPGKF) aggregation” value is “no inhibitory activity”. Moreover, the “EC50, protection against arterial occlusion” value in data set [1] (10 min iv infusion 5 min prior to FeCl3 carotid injury) was determined as 0.075 mg/kg. Also, in data set [1] (doses above 0.05 mg/kg), the “Increase of mean occlusion time” value was 4 fold and the Mean occlusion time was 40 min. Besides, in data set [1] (sub-therapeutic dose alone (PZ-128 0.05 mg/kg; clopidogrel 1 mg/kg PO)), the “Protection against arterial occlusion when used alone” value is listed as “non-significant protection”. The “Right shift of thrombin-induced aggregation curve” value in data set [2] stood at 5 fold. In addition, in data set [3], the “Effect on ex vivo aggregation to thromboxane mimetic U46119” value is on record as “no effect”. Besides, in data set [4], the “Inhibitory activity against ristocetin aggregation” value is “no inhibitory activity”. Moreover, the “Inhibition of ADP response ex vivo” value with P2Y12 and P2Y1 was “no inhibition”. Also, in data set [5], the “Effect on bleeding time, platelet counts or hematocrit” value was “no effect”.
